What was measured:
Experiment in all cases: biochemical
Parameters in all cases: DiscoverX KINOMEscan scanMAX competition binding panel, single concentration, percent of control; remaining binding: dose or concentration left out as unconfirmed
Settings in all cases: KINOMEscan binding, percent of control; read-out: Table S4_SCANMAX REPORT - related to Fig. 1 / Percent Control
MEK4 = biological target: T1, MEK4 (Homo sapiens, UniProt P45985)
T1 construct: gene MAP2K4

FLT3 = FLT3 (Homo sapiens, UniProt P36888)
MEK1 = biological target: T2, MEK1 (Homo sapiens, UniProt Q02750)
T2 construct: gene MAP2K1

STK39 = STK39 (Homo sapiens, UniProt Q9UEW8)
PRKX = PRKX (Homo sapiens, UniProt P51817)
JNK3 = biological target: T3, JNK3 (Homo sapiens, UniProt P53779)
T3 construct: gene MAPK10

NEK2 = NEK2 (Homo sapiens, UniProt P51955)
PIP5K2C = biological target: T4, PIP5K2C (Homo sapiens, UniProt Q8TBX8)
T4 construct: gene PIP4K2C

BMPR1B = BMPR1B (Homo sapiens, UniProt O00238)
YSK4 = biological target: T5, YSK4 (Homo sapiens, UniProt Q56UN5)
T5 construct: gene MAP3K19

PHKG1 = PHKG1 (Homo sapiens, UniProt Q16816)
CASK = CASK (Homo sapiens, UniProt O14936)
RIOK3 = RIOK3 (Homo sapiens, UniProt O14730)
PIP5K1A = PIP5K1A (Homo sapiens, UniProt Q99755)
BRAF = BRAF (Homo sapiens, UniProt P15056)
TNK1 = TNK1 (Homo sapiens, UniProt Q13470)
LIMK1 = LIMK1 (Homo sapiens, UniProt P53667)
[1] = biological target: T6, RSK3(Kin.Dom.2-C-terminal) (Homo sapiens, UniProt Q15349)
T6 construct: gene RPS6KA2; Kin.Dom.2-C-terminal

Sequence of PIP5K1A (Q99755 whole entry): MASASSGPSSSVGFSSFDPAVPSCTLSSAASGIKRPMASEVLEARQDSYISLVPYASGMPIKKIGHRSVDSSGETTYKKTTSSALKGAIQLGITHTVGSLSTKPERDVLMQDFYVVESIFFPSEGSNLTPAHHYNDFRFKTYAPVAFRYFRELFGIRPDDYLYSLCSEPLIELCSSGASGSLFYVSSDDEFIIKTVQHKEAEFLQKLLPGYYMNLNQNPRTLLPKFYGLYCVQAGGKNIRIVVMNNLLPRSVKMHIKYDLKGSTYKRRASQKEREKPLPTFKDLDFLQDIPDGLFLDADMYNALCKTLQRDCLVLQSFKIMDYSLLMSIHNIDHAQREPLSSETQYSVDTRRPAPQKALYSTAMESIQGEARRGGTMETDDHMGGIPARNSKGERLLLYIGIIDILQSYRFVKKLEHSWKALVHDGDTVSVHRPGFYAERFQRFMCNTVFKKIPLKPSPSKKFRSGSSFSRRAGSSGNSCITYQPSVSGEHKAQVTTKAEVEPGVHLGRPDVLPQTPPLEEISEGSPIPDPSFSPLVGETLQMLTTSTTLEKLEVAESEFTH
Sequence of PHKG1 (Q16816 whole entry): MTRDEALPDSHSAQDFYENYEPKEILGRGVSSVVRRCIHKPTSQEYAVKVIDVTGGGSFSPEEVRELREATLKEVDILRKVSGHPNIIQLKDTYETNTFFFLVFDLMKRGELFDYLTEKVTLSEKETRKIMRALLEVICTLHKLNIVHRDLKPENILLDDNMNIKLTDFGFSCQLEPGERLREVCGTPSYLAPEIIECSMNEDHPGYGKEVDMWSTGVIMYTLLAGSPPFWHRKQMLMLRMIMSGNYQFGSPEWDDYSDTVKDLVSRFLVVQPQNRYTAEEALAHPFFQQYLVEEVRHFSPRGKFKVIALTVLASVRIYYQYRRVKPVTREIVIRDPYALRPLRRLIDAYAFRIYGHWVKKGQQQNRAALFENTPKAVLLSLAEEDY
Sequence of CASK (O14936 whole entry): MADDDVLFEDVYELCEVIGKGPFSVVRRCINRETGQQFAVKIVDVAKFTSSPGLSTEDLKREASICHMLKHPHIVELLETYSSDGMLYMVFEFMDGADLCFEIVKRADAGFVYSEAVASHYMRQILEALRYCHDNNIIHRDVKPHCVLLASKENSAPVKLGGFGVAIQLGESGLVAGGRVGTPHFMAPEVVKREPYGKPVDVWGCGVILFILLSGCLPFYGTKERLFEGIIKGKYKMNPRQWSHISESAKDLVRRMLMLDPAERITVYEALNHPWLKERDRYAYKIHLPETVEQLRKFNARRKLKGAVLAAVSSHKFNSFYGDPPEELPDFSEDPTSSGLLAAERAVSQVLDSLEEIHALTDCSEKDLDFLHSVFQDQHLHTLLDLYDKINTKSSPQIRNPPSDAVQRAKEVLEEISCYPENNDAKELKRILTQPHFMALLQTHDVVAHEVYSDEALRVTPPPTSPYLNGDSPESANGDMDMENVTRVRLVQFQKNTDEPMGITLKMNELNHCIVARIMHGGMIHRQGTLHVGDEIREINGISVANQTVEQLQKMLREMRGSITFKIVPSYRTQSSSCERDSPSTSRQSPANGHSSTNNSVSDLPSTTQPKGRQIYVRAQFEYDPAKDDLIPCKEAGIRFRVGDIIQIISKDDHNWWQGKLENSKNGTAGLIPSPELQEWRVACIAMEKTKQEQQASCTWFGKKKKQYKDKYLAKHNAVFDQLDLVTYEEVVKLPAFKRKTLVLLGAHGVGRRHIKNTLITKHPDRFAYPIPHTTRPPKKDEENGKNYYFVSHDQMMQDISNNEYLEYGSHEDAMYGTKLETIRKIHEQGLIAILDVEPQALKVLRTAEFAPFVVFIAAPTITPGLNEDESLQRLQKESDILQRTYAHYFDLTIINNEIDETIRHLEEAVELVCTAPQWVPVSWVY
Sequence of LIMK1 (P53667 whole entry): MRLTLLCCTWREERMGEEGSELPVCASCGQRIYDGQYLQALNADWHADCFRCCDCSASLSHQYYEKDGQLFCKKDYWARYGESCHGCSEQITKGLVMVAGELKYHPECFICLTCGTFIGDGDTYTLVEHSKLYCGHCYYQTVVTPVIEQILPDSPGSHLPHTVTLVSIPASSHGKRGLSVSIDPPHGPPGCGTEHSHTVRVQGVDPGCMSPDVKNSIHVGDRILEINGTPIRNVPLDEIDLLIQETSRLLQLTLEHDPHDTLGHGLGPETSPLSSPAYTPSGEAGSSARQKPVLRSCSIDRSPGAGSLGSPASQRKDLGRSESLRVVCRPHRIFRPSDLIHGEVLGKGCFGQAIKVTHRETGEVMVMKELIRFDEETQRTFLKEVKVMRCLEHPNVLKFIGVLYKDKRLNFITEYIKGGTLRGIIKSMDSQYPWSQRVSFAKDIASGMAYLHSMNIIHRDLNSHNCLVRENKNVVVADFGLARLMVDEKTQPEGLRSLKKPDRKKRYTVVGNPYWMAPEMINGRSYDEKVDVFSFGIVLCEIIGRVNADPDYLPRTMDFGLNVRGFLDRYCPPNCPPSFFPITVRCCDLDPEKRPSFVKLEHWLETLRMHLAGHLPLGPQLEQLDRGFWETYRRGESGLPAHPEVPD
Sequence of RIOK3 (O14730 whole entry): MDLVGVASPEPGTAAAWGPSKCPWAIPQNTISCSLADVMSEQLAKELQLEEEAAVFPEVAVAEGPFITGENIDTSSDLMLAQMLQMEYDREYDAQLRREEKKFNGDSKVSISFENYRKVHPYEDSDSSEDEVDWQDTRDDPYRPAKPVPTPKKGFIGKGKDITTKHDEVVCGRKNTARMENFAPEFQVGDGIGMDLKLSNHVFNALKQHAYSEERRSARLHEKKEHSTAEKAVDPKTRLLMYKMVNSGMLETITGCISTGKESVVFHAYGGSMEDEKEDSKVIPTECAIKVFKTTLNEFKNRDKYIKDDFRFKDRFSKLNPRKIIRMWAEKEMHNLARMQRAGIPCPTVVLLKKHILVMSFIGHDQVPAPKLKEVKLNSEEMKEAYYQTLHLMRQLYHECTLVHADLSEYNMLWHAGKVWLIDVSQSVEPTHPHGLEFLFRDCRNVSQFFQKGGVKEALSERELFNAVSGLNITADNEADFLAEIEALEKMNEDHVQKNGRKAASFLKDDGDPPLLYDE
Sequence of BRAF (P15056 whole entry): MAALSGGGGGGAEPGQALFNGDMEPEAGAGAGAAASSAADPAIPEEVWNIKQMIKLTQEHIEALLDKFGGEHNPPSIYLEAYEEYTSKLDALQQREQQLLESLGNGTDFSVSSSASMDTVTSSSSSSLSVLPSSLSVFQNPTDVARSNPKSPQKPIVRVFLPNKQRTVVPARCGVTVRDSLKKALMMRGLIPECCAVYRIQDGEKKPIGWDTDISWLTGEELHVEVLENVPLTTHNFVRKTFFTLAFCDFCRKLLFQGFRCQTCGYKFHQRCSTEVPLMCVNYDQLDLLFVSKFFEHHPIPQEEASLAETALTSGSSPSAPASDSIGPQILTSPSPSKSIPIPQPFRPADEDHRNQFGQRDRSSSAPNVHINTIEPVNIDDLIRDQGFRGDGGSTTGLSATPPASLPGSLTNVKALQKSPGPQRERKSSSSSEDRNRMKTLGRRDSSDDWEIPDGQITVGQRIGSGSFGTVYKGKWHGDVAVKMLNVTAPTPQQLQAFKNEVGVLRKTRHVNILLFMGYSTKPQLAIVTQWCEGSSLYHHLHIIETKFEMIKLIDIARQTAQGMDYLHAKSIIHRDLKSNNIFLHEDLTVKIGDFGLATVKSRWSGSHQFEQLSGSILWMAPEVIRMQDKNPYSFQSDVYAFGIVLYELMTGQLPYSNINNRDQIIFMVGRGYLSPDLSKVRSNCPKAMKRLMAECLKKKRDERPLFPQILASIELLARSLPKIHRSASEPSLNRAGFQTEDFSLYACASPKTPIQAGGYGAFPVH
Sequence of NEK2 (P51955 whole entry): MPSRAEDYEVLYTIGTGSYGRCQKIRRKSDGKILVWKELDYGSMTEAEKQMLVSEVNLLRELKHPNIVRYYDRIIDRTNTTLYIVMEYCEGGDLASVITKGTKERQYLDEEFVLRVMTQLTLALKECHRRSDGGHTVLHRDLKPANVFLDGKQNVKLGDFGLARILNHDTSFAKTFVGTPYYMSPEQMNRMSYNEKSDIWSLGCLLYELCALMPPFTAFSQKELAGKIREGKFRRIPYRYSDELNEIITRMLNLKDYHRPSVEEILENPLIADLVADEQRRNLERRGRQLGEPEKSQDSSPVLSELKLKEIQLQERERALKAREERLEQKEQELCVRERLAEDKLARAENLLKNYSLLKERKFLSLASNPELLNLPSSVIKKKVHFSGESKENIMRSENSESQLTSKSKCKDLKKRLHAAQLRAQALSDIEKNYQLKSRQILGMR
Sequence of TNK1 (Q13470 whole entry): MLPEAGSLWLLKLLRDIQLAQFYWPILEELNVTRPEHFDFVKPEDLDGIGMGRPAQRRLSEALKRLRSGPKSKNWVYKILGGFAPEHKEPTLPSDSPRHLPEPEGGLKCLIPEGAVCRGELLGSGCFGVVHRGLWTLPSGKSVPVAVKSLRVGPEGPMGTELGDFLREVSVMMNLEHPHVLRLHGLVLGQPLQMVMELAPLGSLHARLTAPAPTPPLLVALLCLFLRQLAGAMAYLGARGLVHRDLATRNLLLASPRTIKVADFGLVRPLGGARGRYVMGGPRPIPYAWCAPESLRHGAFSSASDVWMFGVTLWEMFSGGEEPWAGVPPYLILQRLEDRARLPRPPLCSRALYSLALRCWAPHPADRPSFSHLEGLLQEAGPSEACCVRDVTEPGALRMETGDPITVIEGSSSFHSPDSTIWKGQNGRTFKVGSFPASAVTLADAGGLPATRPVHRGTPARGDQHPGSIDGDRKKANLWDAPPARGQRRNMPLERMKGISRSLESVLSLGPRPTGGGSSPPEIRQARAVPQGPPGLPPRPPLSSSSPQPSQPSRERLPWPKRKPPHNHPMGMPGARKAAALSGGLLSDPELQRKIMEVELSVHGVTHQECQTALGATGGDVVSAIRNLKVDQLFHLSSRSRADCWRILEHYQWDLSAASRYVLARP

c1ccc2c(c1)Sc1ccccc1N2CCN1CCOCC1 [J54]
remaining binding (MEK4): 100%
remaining binding (FLT3): 100%
remaining binding (MEK1): 100%
remaining binding (STK39): 100%
remaining binding (PRKX): 91%
remaining binding (JNK3): 93%
remaining binding (NEK2): 100%
remaining binding (PIP5K2C): 100%
remaining binding (BMPR1B): 93%
remaining binding (YSK4): 86%
remaining binding (PHKG1): 100%
remaining binding (CASK): 100%
remaining binding (RIOK3): 72%
remaining binding (PIP5K1A): 46%
remaining binding (BRAF): 100%
remaining binding (TNK1): 99%
remaining binding (LIMK1): 100%
remaining binding [1]: 97%
